Patent US20070049564A1 (Wyeth, priority 2005, published 2007)
Values after ≈ are worked out from the molar mass of the structure shown. Like-named read-outs stand apart in the source and are kept apart here.

Key:
Test in all cases: MIC, broth microdilution
E. coli GC 4560 = settings: Escherichia coli
E. coli GC 2233 = settings: Escherichia coli
E. coli GC 3226 = settings: Escherichia coli
E. coli GC 4559 = settings: Escherichia coli
S. pyogenes GC 4563 = settings: Streptococcus pyogenes
E. coli GC 2270 = settings: Escherichia coli
E. coli GC 2203 = settings: Escherichia coli
E. coli GC 2271 = settings: Escherichia coli
S. agalactiae GC 4564 = settings: Streptococcus agalactiae
E. coli GC 2234 = settings: Escherichia coli
E. coli GC 6465 = settings: Escherichia coli
S. aureus GC 6466 = settings: Staphylococcus aureus
Procedure: Antimicrobial susceptibility testing. The in vitro activities of the antibiotics are determined by the broth microdilution method as recommended by the National Committee for Clinical Laboratory Standards (NCCLS) (1). Mueller-Hinton II broth (MHBII)(BBL Cockeysville, Md.) is the medium employed in the testing procedures. Microtiter plates containing serial dilutions of each antimicrobial agent are inoculated with each organism to yield the appropriate density (10^5 CFU/ml) in a 100 μl final volume. The plates are incubated for 18-22 hours at 35° C. in ambient air. […] Standard Pharmacological Test Procedures
Presented in Tables I-XIII are representative compounds of Formula I which were evaluated against a panel of 40 selected gram-positive and gram-negative bacteria strains by pre-incubation in water, mouse serum or human serum. Representative compounds were first incubated in mouse serum for an hour prior to the in vitro testing against a panel of selected gram-positive and gram-negative bacteria strains. All compounds were also pre-incubated in water for an hour prior to testing as control. Representative compounds of Formula I were incubated in human serum prior to MIC determination.

E. coli GC 2235 = settings: Escherichia coli
S. aureus GC 6469 = settings: Staphylococcus aureus
S. typhimurium GC 2172 = settings: Salmonella enterica, TYPHIMURIUM
E. faecium GC 4556 = settings: Enterococcus faecium
S. aureus GC 6335 = settings: Staphylococcus aureus
S. aureus GC 6467 = settings: Staphylococcus aureus
E. coli GC 1073 = settings: Escherichia coli
S. aureus GC 1079 = settings: Staphylococcus aureus

## CCC(C)(C)C(=O)OCOC(=O)N(CC(=O)Nc1cc(N(C)C)c2c(c1O)C(=O)C1=C(O)[C@]3(O)C(=O)C(C(N)=O)=C(O)[C@@H](N(C)C)[C@@H]3C[C@@H]1C2)C(C)(C)C [Example 44, ({[(2-{[(5aR,6aS,7S,10aS)-9-(aminocarbonyl)-4,7-bis(dimethylamino)-1,8,10a,11-tetrahydroxy-10,12-dioxo-5,5a,6,6a,7,10,10a,12-octahydrotetracen-2-yl]amino}-2-oxoethyl)(tert-butyl)amino]carbonyl}oxy)methyl 2,2-dimethylbutanoate]
E. coli GC 4560; GC4560, read-out: MINIMAL INHIBITORY CONCENTRATION MIC, pre-incubated in Human Serum
  MIC: 4 µg/mL (≈ 5.28 µM)
E. coli GC 4560; GC4560, read-out: MINIMAL INHIBITORY CONCENTRATION MIC, pre-incubated in Mouse Serum
  MIC: 2 µg/mL (≈ 2.64 µM)
E. coli GC 4560; GC4560, read-out: MINIMAL INHIBITORY CONCENTRATION MIC, pre-incubated in Water
  MIC: 4 µg/mL (≈ 5.28 µM)
E. coli GC 2233; GC2233, read-out: MINIMAL INHIBITORY CONCENTRATION MIC, pre-incubated in Human Serum
  MIC: > 64 µg/mL
E. coli GC 2233; GC2233, read-out: MINIMAL INHIBITORY CONCENTRATION MIC, pre-incubated in Mouse Serum
  MIC: 2 µg/mL (≈ 2.64 µM)
E. coli GC 2233; GC2233, read-out: MINIMAL INHIBITORY CONCENTRATION MIC, pre-incubated in Water
  MIC: > 64 µg/mL
E. coli GC 3226; GC3226, read-out: MINIMAL INHIBITORY CONCENTRATION MIC, pre-incubated in Human Serum
  MIC: > 64 µg/mL
E. coli GC 3226; GC3226, read-out: MINIMAL INHIBITORY CONCENTRATION MIC, pre-incubated in Mouse Serum
  MIC: 4 µg/mL (≈ 5.28 µM)
E. coli GC 3226; GC3226, read-out: MINIMAL INHIBITORY CONCENTRATION MIC, pre-incubated in Water
  MIC: > 64 µg/mL
E. coli GC 4559; GC4559, read-out: MINIMAL INHIBITORY CONCENTRATION MIC, pre-incubated in Human Serum
  MIC: > 64 µg/mL
E. coli GC 4559; GC4559, read-out: MINIMAL INHIBITORY CONCENTRATION MIC, pre-incubated in Mouse Serum
  MIC: 4 µg/mL (≈ 5.28 µM)
E. coli GC 4559; GC4559, read-out: MINIMAL INHIBITORY CONCENTRATION MIC, pre-incubated in Water
  MIC: > 64 µg/mL
S. pyogenes GC 4563; GC4563, read-out: MINIMAL INHIBITORY CONCENTRATION MIC, pre-incubated in Human Serum
  MIC: 4 µg/mL (≈ 5.28 µM)
S. pyogenes GC 4563; GC4563, read-out: MINIMAL INHIBITORY CONCENTRATION MIC, pre-incubated in Mouse Serum
  MIC: 1 µg/mL (≈ 1.32 µM)
S. pyogenes GC 4563; GC4563, read-out: MINIMAL INHIBITORY CONCENTRATION MIC, pre-incubated in Water
  MIC: 2 µg/mL (≈ 2.64 µM)
E. coli GC 2270; GC2270, read-out: MINIMAL INHIBITORY CONCENTRATION MIC, pre-incubated in Human Serum
  MIC: > 64 µg/mL
E. coli GC 2270; GC2270, read-out: MINIMAL INHIBITORY CONCENTRATION MIC, pre-incubated in Mouse Serum
  MIC: 2 µg/mL (≈ 2.64 µM)
E. coli GC 2270; GC2270, read-out: MINIMAL INHIBITORY CONCENTRATION MIC, pre-incubated in Water
  MIC: > 64 µg/mL
E. coli GC 2203; GC2203, read-out: MINIMAL INHIBITORY CONCENTRATION MIC, pre-incubated in Human Serum
  MIC: > 64 µg/mL
E. coli GC 2203; GC2203, read-out: MINIMAL INHIBITORY CONCENTRATION MIC, pre-incubated in Mouse Serum
  MIC: 2 µg/mL (≈ 2.64 µM)
E. coli GC 2203; GC2203, read-out: MINIMAL INHIBITORY CONCENTRATION MIC, pre-incubated in Water
  MIC: > 64 µg/mL
E. coli GC 2271; GC2271, read-out: MINIMAL INHIBITORY CONCENTRATION MIC, pre-incubated in Human Serum
  MIC: > 64 µg/mL
E. coli GC 2271; GC2271, read-out: MINIMAL INHIBITORY CONCENTRATION MIC, pre-incubated in Mouse Serum
  MIC: 2 µg/mL (≈ 2.64 µM)
E. coli GC 2271; GC2271, read-out: MINIMAL INHIBITORY CONCENTRATION MIC, pre-incubated in Water
  MIC: > 64 µg/mL
S. agalactiae GC 4564; GC4564, read-out: MINIMAL INHIBITORY CONCENTRATION MIC, pre-incubated in Human Serum
  MIC: 4 µg/mL (≈ 5.28 µM)
S. agalactiae GC 4564; GC4564, read-out: MINIMAL INHIBITORY CONCENTRATION MIC, pre-incubated in Mouse Serum
  MIC: 1 µg/mL (≈ 1.32 µM)
S. agalactiae GC 4564; GC4564, read-out: MINIMAL INHIBITORY CONCENTRATION MIC, pre-incubated in Water
  MIC: 4 µg/mL (≈ 5.28 µM)
E. coli GC 2234; GC2234, read-out: MINIMAL INHIBITORY CONCENTRATION MIC, pre-incubated in Human Serum
  MIC: > 64 µg/mL
E. coli GC 2234; GC2234, read-out: MINIMAL INHIBITORY CONCENTRATION MIC, pre-incubated in Mouse Serum
  MIC: 2 µg/mL (≈ 2.64 µM)
E. coli GC 2234; GC2234, read-out: MINIMAL INHIBITORY CONCENTRATION MIC, pre-incubated in Water
  MIC: > 64 µg/mL
E. coli GC 6465; GC6465, read-out: MINIMAL INHIBITORY CONCENTRATION MIC, pre-incubated in Human Serum
  MIC: > 64 µg/mL
E. coli GC 6465; GC6465, read-out: MINIMAL INHIBITORY CONCENTRATION MIC, pre-incubated in Mouse Serum
  MIC: 8 µg/mL (≈ 10.6 µM)
E. coli GC 6465; GC6465, read-out: MINIMAL INHIBITORY CONCENTRATION MIC, pre-incubated in Water
  MIC: > 64 µg/mL
S. aureus GC 6466; GC6466, read-out: MINIMAL INHIBITORY CONCENTRATION MIC, pre-incubated in Human Serum
  MIC: 2 µg/mL (≈ 2.64 µM)
S. aureus GC 6466; GC6466, read-out: MINIMAL INHIBITORY CONCENTRATION MIC, pre-incubated in Mouse Serum
  MIC: 2 µg/mL (≈ 2.64 µM)
S. aureus GC 6466; GC6466, read-out: MINIMAL INHIBITORY CONCENTRATION MIC, pre-incubated in Water
  MIC: 2 µg/mL (≈ 2.64 µM)
E. coli GC 2235; GC2235, read-out: MINIMAL INHIBITORY CONCENTRATION MIC, pre-incubated in Human Serum
  MIC: > 64 µg/mL
E. coli GC 2235; GC2235, read-out: MINIMAL INHIBITORY CONCENTRATION MIC, pre-incubated in Mouse Serum
  MIC: 2 µg/mL (≈ 2.64 µM)
E. coli GC 2235; GC2235, read-out: MINIMAL INHIBITORY CONCENTRATION MIC, pre-incubated in Water
  MIC: > 64 µg/mL
S. aureus GC 6469; GC6469, read-out: MINIMAL INHIBITORY CONCENTRATION MIC, pre-incubated in Human Serum
  MIC: 2 µg/mL (≈ 2.64 µM)
S. aureus GC 6469; GC6469, read-out: MINIMAL INHIBITORY CONCENTRATION MIC, pre-incubated in Mouse Serum
  MIC: 2 µg/mL (≈ 2.64 µM)
S. aureus GC 6469; GC6469, read-out: MINIMAL INHIBITORY CONCENTRATION MIC, pre-incubated in Water
  MIC: 4 µg/mL (≈ 5.28 µM)
S. typhimurium GC 2172; read-out: MINIMAL INHIBITORY CONCENTRATION MIC, pre-incubated in Human Serum
  MIC: > 64 µg/mL
S. typhimurium GC 2172; read-out: MINIMAL INHIBITORY CONCENTRATION MIC, pre-incubated in Mouse Serum
  MIC: 8 µg/mL (≈ 10.6 µM)
S. typhimurium GC 2172; read-out: MINIMAL INHIBITORY CONCENTRATION MIC, pre-incubated in Water
  MIC: > 64 µg/mL
E. faecium GC 4556; GC4556, read-out: MINIMAL INHIBITORY CONCENTRATION MIC, pre-incubated in Human Serum
  MIC: 4 µg/mL (≈ 5.28 µM)
E. faecium GC 4556; GC4556, read-out: MINIMAL INHIBITORY CONCENTRATION MIC, pre-incubated in Mouse Serum
  MIC: 2 µg/mL (≈ 2.64 µM)
E. faecium GC 4556; GC4556, read-out: MINIMAL INHIBITORY CONCENTRATION MIC, pre-incubated in Water
  MIC: 4 µg/mL (≈ 5.28 µM)
S. aureus GC 6335; GC6335, read-out: MINIMAL INHIBITORY CONCENTRATION MIC, pre-incubated in Human Serum
  MIC: 4 µg/mL (≈ 5.28 µM)
S. aureus GC 6335; GC6335, read-out: MINIMAL INHIBITORY CONCENTRATION MIC, pre-incubated in Mouse Serum
  MIC: 2 µg/mL (≈ 2.64 µM)
S. aureus GC 6335; GC6335, read-out: MINIMAL INHIBITORY CONCENTRATION MIC, pre-incubated in Water
  MIC: 4 µg/mL (≈ 5.28 µM)
S. aureus GC 6467; GC6467, read-out: MINIMAL INHIBITORY CONCENTRATION MIC, pre-incubated in Human Serum
  MIC: 2 µg/mL (≈ 2.64 µM)
S. aureus GC 6467; GC6467, read-out: MINIMAL INHIBITORY CONCENTRATION MIC, pre-incubated in Mouse Serum
  MIC: 2 µg/mL (≈ 2.64 µM)
S. aureus GC 6467; GC6467, read-out: MINIMAL INHIBITORY CONCENTRATION MIC, pre-incubated in Water
  MIC: 4 µg/mL (≈ 5.28 µM)
E. coli GC 1073; GC1073, read-out: MINIMAL INHIBITORY CONCENTRATION MIC, pre-incubated in Human Serum
  MIC: > 64 µg/mL
E. coli GC 1073; GC1073, read-out: MINIMAL INHIBITORY CONCENTRATION MIC, pre-incubated in Mouse Serum
  MIC: 4 µg/mL (≈ 5.28 µM)
E. coli GC 1073; GC1073, read-out: MINIMAL INHIBITORY CONCENTRATION MIC, pre-incubated in Water
  MIC: > 64 µg/mL
S. aureus GC 1079; GC1079, read-out: MINIMAL INHIBITORY CONCENTRATION MIC, pre-incubated in Human Serum
  MIC: 2 µg/mL (≈ 2.64 µM)
S. aureus GC 1079; GC1079, read-out: MINIMAL INHIBITORY CONCENTRATION MIC, pre-incubated in Mouse Serum
  MIC: 2 µg/mL (≈ 2.64 µM)
S. aureus GC 1079; GC1079, read-out: MINIMAL INHIBITORY CONCENTRATION MIC, pre-incubated in Water
  MIC: 4 µg/mL (≈ 5.28 µM)
